According to patent publication US7767789B2, “Truncated proteins as cancer markers” (University Hopitals of Cleveland, priority 2005, dated 2010):
Like-named read-outs stand apart in the source and are kept apart here. Values belong to the molecule of their own block, whether it stands above or below them. Residues, ends and D or L forms follow the SMILES beside them. *: point of attachment. Cbz = O=C(OCc1ccccc1)*; CH2F = FC*

Key:
[1] = system: CaSki cells; assay: DNA solubilization assay (apoptosis); type: cell-based, human; settings: for effect on zinterol (1 μM)-induced inhibition of BzATP-induced apoptosis: cotreatment 24 h: 10 μM propranolol, 100 nM ICI 118,551, 30 μM H-89 dihydrochloride; for effect on BzATP-induced apoptosis (DNA solubilization): pretreatment: EGF 0.2 nM, zinterol/terbutaline 1 μM 24 h, forskolin 10 μM 14 h with IBMX, isoproterenol 10 μM, phenylephrine 100 μM; for BzATP-induced DNA solubilization after pretreatment: 100 μM BzATP 9 h, 24 h 2 nM epinephrine ± 0.2 nm EGF, zVAD-FMK 30 min before, 50 /ZM
Experimental: Twenty-four hours before the end of the experiment, cells were labeled with [^3H]thymidine (specific activity, 93 Ci/mmol; 5 μCi/1×10^6 cells) for 16 h. The medium was removed, and cells were washed three times with fresh medium lacking [^3H]thymidine and were incubated in the same medium for an additional 6 h. At the end of incubation, the supernatant was stored, and cells were lysed in 0.5 ml lysis buffer (10 mM Tris-HCl, pH 7.5; plus 1 mM EDTA-0.2% Triton X-100) for 1 h at 4° C. The intact chromatin was separated from the fragmented DNA by 5 min centrifugation at 4° C. in Eppendorf microcentrifuge at 12,000×g. The supernatant (lysate) was stored, while the pellet was resuspended in 0.5 ml of 1% sodium dodecyl sulfate (SDS). The radioactivity contained in the supernatants, lysates; and pellets was counted in a scintillation counter, and DNA fragmentation was calculated as: [% Solubilized DNA]=([cpm supernatant+cpm lysates]/[cpm supernatant+cpm lysate+cpm pellet])×100.

[2] = molecular target: T1, full-length human P2X7 receptor (HEK-293-hP2X7-R cells) (Homo sapiens, UniProt Q99572); assay: Cytosolic calcium in HEK-293-hP2X7-R and wild-type HEK293 cells on filters; type: cell-based
T1 construct: For transfections, the full length human P2X7 receptor; expressed in transfected cells; host or cells: HEK-293, pcDNA-6 vector
T1 sequence (Q99572 1-595): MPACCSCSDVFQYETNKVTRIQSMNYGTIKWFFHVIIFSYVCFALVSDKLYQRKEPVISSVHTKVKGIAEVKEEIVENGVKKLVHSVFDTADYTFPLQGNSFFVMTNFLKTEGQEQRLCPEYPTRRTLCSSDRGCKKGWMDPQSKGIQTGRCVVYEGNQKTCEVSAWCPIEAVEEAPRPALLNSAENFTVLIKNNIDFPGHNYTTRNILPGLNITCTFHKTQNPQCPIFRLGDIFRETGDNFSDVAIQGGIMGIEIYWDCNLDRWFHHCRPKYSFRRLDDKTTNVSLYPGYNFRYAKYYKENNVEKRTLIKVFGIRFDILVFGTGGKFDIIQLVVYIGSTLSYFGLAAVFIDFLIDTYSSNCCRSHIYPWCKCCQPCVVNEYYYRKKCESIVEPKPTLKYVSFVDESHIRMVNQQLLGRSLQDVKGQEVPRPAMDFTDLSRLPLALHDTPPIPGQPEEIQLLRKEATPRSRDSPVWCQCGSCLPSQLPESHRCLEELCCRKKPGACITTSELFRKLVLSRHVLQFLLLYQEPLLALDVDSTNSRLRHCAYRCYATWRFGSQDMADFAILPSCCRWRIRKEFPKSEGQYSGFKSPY

[3] = system: β-arrestin-2-GFP in CaSki cells; assay: Real-time confocal microscopy of β-arrestin-2-GFP, CaSki cells; type: cell-based, human; settings: CaSki transfected with β-arrestin-2-GFP; 250 μM ATP
Experimental: (§1) CaSki cells transfected with the β-arrestin-2-GFP, or HEK-293 cells co-transfected with the full-length human P2X7-receptor and the β-arrestin-2-GFP were plated on 35-mm glass-bottom culture dishes (MatTek Corporation, Ashland, MA). Dishes contained a centered, 1 cm well formed from a glass coverslip sealed hole in the plastic. Two hours before experiments the medium was replaced with serum-free medium supplemented with 10 mM HEPES. The distribution of the β-arrestin-2-GFP was visualized before and after treatment with the agonist by real-time confocal microscopy. Imaging of the β-arrestin-2-GFP fluorescence in the same cells was performed on a Zeiss laser-scanning confocal microscope (LSM-510) using a heated (37° C.) microscope stage. Barak et al., “A beta-arrestin/green fluorescent protein biosensor for detecting G protein-coupled receptor activation” J Biol Chem 272:27497-27500 (1997).
(§2) Images were collected sequentially before and after treatment with agonist for 0-30 min at 37° C. using single line excitation (488 nm).

[4] = molecular target: P2X7 receptor (HEK-293-hP2X7-R cells) (Homo sapiens, UniProt Q99572)
[5] = system: β-arrestin-2-GFP in HEK-293-hP2X7-R cells; assay: Real-time confocal microscopy of β-arrestin-2-GFP, HEK-293 cells; type: cell-based, human
Experimental: as §1, §2

[6] = system: α-adrenoceptors (CaSki cells); assay: Binding studies, α-adrenoceptor radioligands; design: species or system human; settings: not shown
Experimental: Binding studies of the adrenoceptors and the EGF receptor used a similar method. Two hundred fifty microliters of binding medium (serum-free DMEM, 0.1% BSA, 10 mM HEPES) containing […] of the radioligand were added to the apical container of the filter, and 500/μl of the same solution to the basolateral container; parallel tubes contained an additional 200-fold excess radioinert ligand. The cells were then incubated at 4° C. for 3 h; at the completion of incubations cells were washed three times with ice-cold HBSS containing 0.1% BSA. Cells were solubilized in 0.2 N NaOH, and the bound ligand was separated on glass fiber filters (Whatman, GF/C, Tonawanda, N.Y.) by vacuum filtration. The associated radioligand was counted either in a β-scintillation counter (for [^3H] associated ligands) or in a γ-counter (for 125I] associated ligands). […] (all at 1 μCi/ml; specific activity, about 90 Ci/mmo]; Amersham), and [^125I]EGF (5 μCi/ml; specific activity, about 100 Ci/mmol; Biomedical Technology, Stoughton, Mass.). […] Human recombinant EGF was from R&D Systems (Minneapolis, Minn.). Specific receptor binding was expressed per milligram DNA, and data were analyzed by Scatchard plot.

[7] = molecular target: T1, full-length human P2X7 receptor (HEK-293-hP2X7-R cells); assay: Ethidium bromide influx in HEK-293-hP2X7-R and wild-type HEK293 cells on filters; type: cell-based
[8] = system: caspase-9; settings: hECEs and CaSki cells; cited from earlier work
[9] = system: Bcl-2; settings: cited from earlier work
[10] = system: P2X7 receptor; settings: cited from earlier work
[11] = system: hECEs, ECE16-1, HT3, CaSki, SiHa and Hela cells; settings: cited from earlier work
[12] = system: CaSki cells; assay: Number of CaSki cells in culture; type: cell-based, human; settings: serum-free; 0.2 nM EGF, 2 nM epinephrine, or both, 24 h
Experimental: Near-confluent cultures of CaSki cells on filters were shifted for 14 hours to serum-free medium supplemented with 1% BSA and were treated in the same medium with 0.2 nM EGF, 2 nM epinephrine, or both for an additional 24 h. At the completion of treatments, cells were harvested off the filters and counted.

[13] = molecular target: T2, β2-adrenoceptor (CaSki cells) (Homo sapiens, UniProt P07550); assay: Binding studies, β-adrenoceptor radioligand
T2 construct: endogenous in cells; host or cells: CaSki cells on filters (intact cells, 4 °C)
T2 sequence (P07550 whole entry): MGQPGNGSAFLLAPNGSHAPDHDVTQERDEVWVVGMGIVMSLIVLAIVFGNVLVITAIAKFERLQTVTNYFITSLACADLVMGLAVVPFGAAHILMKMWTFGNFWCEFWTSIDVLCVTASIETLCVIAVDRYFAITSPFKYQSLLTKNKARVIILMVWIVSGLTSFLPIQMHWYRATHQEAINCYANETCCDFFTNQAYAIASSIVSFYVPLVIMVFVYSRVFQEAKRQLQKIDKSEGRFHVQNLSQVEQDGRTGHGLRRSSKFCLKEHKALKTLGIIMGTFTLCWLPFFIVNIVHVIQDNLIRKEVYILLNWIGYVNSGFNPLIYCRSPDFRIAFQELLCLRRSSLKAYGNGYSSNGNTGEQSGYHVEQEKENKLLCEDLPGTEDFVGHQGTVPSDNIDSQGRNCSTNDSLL

[14] = HEK-293-hP2X7-R with β-arrestin-2-GFP, 10 μM angiotensin, 10 μM UTP

Molecule: CC(C)NCC(O)COc1cccc2ccccc12 (stereo not drawn) [propranolol]
effect on zinterol (1 μM)-induced inhibition of BzATP-induced apoptosis [1]: blocked

Molecule: CC(C)(Cc1ccccc1)NCC(O)c1ccc(O)c(NS(C)(=O)=O)c1 (stereo not drawn) [zinterol]
effect on TNFα-induced increase in DNA solubilization ([1]; pretreatment 24 h: 1 μM zinterol or 0.2 nM EGF): no effect
effect on BzATP-induced apoptosis (DNA solubilization) [1]: inhibited

Molecule: Nc1ncnc2c1ncn2[C@@H]1O[C@H](COP(=O)(O)OP(=O)(O)OP(=O)(O)O)[C@@H](O)[C@H]1O [ATP, adenosine triphosphate]
Cai transients [2]: did not induce Cai transients
sustained cytosolic calcium increase [2]: induced sustained Ci increase
time to re-distribution of GFP fluorescence towards cell periphery [3]: ≤ 3 min
65 KDa and 18 KDa forms in the cytosol ([4]; HEK-293-hP2X7-R cells): biphasic change
18 KDa form in the membrane-enriched fraction ([4]; HEK-293-hP2X7-R, began 10 min after treatment): gradual increase
time to redistribution of the GFP fluorescence towards cell periphery ([5]; HEK-293-hP2X7-R co-transfected with β-arrestin-2-GFP, 250 μM ATP): ≤ 5 min
duration of redistribution effect ([5]; HEK-293-hP2X7-R with β-arrestin-2-GFP, 250 μM ATP): at least 10 minutes
effect on the GFP fluorescence ([5]; HEK-293 cells transfected with only β-arrestin-2-GFP, 250 μM ATP): no significant effect

Molecule: [^3H]tamsulosin
specific binding [6]: no specific binding

effect on ATP/BzATP-induced sustained calcium increase [2]: inhibited
effect on ATP/BzATP-induced influx of ethidium bromide [7]: inhibited
Molecule: CN([C@@H](Cc1ccc(OS(=O)(=O)c2cccc3cnccc23)cc1)C(=O)N1CCN(c2ccccc2)CC1)S(=O)(=O)c1cccc2cnccc12 [KN-62, 1-[N,O-bis(5-isoquinolinesulfonyl)-N-methyl-L-tyrosyl]-4-phenylpiperazine]

Molecule: 17β-estradiol [estrogen]
P2X7 receptor-induced activation of caspase-9 [8]: blocked P2X7 receptor-induced activation of caspase-9
Bcl-2 regulation ([9]; CaSki cells): upregulated Bcl-2
Bcl-2 regulation ([9]; SiHa and Hela cells): did not find estrogen regulation of Bcl-2
BzATP-induced calcium influx ([10]; cancer CaSki cells): only a mild effect
BzATP-induced calcium influx ([10]; normal hECEs): did block BzATP-induced calcium influx
P2X7 receptor-induced apoptosis ([11]; SiHa and Hela cells): no effect
earliest effects after adding the hormone [11]: 1 to 3 h
baseline and P2X7 receptor-induced apoptosis ([11]; hECEs, ECE16-1, HT3, and CaSki cells): blocked baseline and P2X7 receptor-induced apoptosis

effect on ATP/BzATP-induced sustained calcium increase [2]: inhibited
effect on ATP/BzATP-induced influx of ethidium bromide [7]: inhibited
Molecule: Nc1ncnc2c1ncn2[C@@H](C=O)O[C@@H](C=O)COP(=O)(O)OP(=O)(O)OP(=O)(O)O [oATP, oxidized ATP]

Molecule: CC(C)NCC(O)c1ccc(O)c(O)c1 (stereo not drawn) [isoproterenol]
effect on BzATP-induced apoptosis (DNA solubilization) [1]: no effect

Molecule: angiotensin
effect on the GFP fluorescence [5, 14]: Neither angiotensin, nor UTP, had a significant effect

Molecule: TNFα
DNA solubilization ([1]; 100 μM BzATP for 9 h or 10 μM TNFα for 14 h): significantly increased DNA solubilization

Molecule: CC(=O)[C@H]1CC[C@H]2[C@@H]3CCC4=CC(=O)CC[C@]4(C)[C@H]3CC[C@]12C [progesterone]
inhibition of the estrogen antiapoptotic action [11]: lack of inhibition

Molecule: COc1cc2nc(N3CCN(C(=O)c4ccco4)CC3)nc(N)c2cc1OC [[^3H]prazosin]
specific binding [6]: no specific binding

Molecule: Cl.Cl.O=S(=O)(NCCNC/C=C/c1ccc(Br)cc1)c1cccc2cnccc12 [H-89 dihydrochloride]
effect on zinterol (1 μM)-induced inhibition of BzATP-induced apoptosis [1]: blocked

Molecule: CNC[C@H](O)c1ccc(O)c(O)c1 [epinephrine]
number of cells in culture [12]: increased the number of cells in culture
BzATP-induced DNA solubilization after pretreatment [1]: 4.6%

Molecule: COC(=O)C[C@H](NC(=O)[C@H](C)NC(=O)[C@@H](NC(=O)OCc1ccccc1)C(C)C)C(=O)CF [zVAD-FMK, Benzyloxy-vallne-alardne-aspartate-O-methylfluoromethylketone] (Cbz-Val-Ala-Asp(OMe)-CH2F)
BzATP-induced DNA solubilization after pretreatment [1]: about 1.4%

Molecule: O=c1ccn([C@@H]2O[C@H](COP(=O)(O)OP(=O)(O)OP(=O)(O)O)[C@@H](O)[C@H]2O)c(=O)[nH]1 [UTP]
effect on cytosolic calcium levels ([2]; not shown): nor did the nucleotide UTP have any appreciable effect
effect on the GFP fluorescence [5, 14]: Neither angiotensin, nor UTP, had a significant effect

Molecule: Cc1ccc(OCC(O)C(C)NC(C)C)c2c1CCC2 (stereo not drawn) [ICI 118,551]
effect on zinterol (1 μM)-induced inhibition of BzATP-induced apoptosis [1]: blocked

Molecule: CC(C)(C)NCC(O)c1cc(O)cc(O)c1 (stereo not drawn) [terbutaline]
effect on BzATP-induced apoptosis (DNA solubilization) [1]: inhibited

Molecule: CNC[C@H](O)c1cccc(O)c1 [phenylephrine]
effect on BzATP-induced apoptosis (DNA solubilization) [1]: no effect

Molecule: C[C@]12CC[C@@H]3c4ccc(O)cc4C[C@@H](CCCCCCCCC[S+]([O-])CCCC(F)(F)C(F)(F)F)[C@H]3[C@@H]1CC[C@@H]2O (stereo partly drawn) [ICI-182780]
inhibition of the estrogen antiapoptotic action [11]: lack of inhibition

Molecule: CC/C(=C(\c1ccccc1)c1ccc(OCCN(C)C)cc1)c1ccccc1 [tamoxifen]
inhibition of the estrogen antiapoptotic action [11]: lack of inhibition

Molecule: CC(C)(C)NCC(O)COc1cccc2[nH]c(C#N)c([125I])c12 (stereo not drawn) [[^125I]cyanopindolol]
binding activity [13]: about 15 fmol/mg DNA
binding activity as receptors per cell [13]: ~10,000 receptors/cell
